Assay results reported in paper PMC7023430, “4-Aminobenzoic Acid Derivatives: Converting Folate Precursor to Antimicrobial and Cytotoxic Agents” (Biomolecules, 2019).
In brackets after ≈: the same amount, converted by molar mass. Where two headings read alike, the source gives them in different places.

Key:
HepG2 cells = experiment: Cytotoxicity, CellTiter 96 assay; assay type: cell-based, human; details: 24 h incubation
Procedure: HepG2, human hepatocellular carcinoma cells (ATCC HB-8065; passage 5–8) purchased from Health Protection Agency Culture Collections (ECACC, Salisbury, UK) were cultured in Minimum Essentials Eagle Medium supplemented with 10% fetal bovine serum, 1% L-glutamine solution and non-essential amino acid solution (Sigma-Aldrich, St. Louis, MO, USA) in a humidified atmosphere containing 5% CO2 at 37 °C. For subculturing, the cells were harvested after trypsin/EDTA (Sigma-Aldrich, St. Louis, USA) treatment at 37 °C. To evaluate cytotoxicity, the cells treated with the tested substances were used as experimental groups whereas untreated HepG2 cells served as control groups.
The cells were seeded in a density of 10 000 cells per well in a 96-well plate. The following day the cells were treated with each of the tested substances dissolved in DMSO (maximal incubation concentration of DMSO was 1% v/v). The tested substances were prepared at different incubation concentrations in triplicates according to their solubility. Simultaneously, the controls representing 100% cell viability, 0% cell viability (the cells treated with 10% DMSO), no cell control and vehiculum controls were also involved in triplicates. After 24 h incubation in a humidified atmosphere containing 5% CO2 at 37 °C, the reagent from the kit CellTiter 96 AQueous One Solution Cell Proliferation Assay (CellTiter 96; Promega, Fitchburg, WI, USA) was added. After 2 h incubation at 37 °C absorbance of samples was recorded at 490 nm (TECAN, Infinita M200, Grödig, Austria). A standard toxicological parameter IC50 was calculated by nonlinear regression from a semilogarithmic plot of incubation concentration versus percentage of absorbance relative to untreated controls using GraphPad Prism software (version 6; GraphPad Software, Inc., La Jolla, CA, USA).
The CellTiter 96 assay used is based on the reduction of tetrazolium dye in living cells to formazan, which is then determined colorimetrically. This reduction is related to availability of NADH or NADPH. The decline in levels of these metabolically important compounds in the cell causes that the production of formazan is reduced. For quantitative comparison of cytotoxicity, the parameter IC50 was used.

Trichosporon asahii 1188 = experiment: Antifungal microdilution broth method, T. asahii; assay type: cell-based
Procedure: (§1) The antifungal properties were evaluated against five yeast strains, namely: Candida albicans ATCC 44859, Candida tropicalis 156, Candida krusei […], Candida glabrata 20/I, Trichosporon […] 1188 and three strains of filamentous fungi: Aspergillus fumigatus 231, Lichtheimia corymbifera 272, and Trichophyton interdigitale 445. A microdilution broth method was performed according to EUCAST II, III instructions with slight modifications. Briefly, tested compounds were dissolved in DMSO and diluted in a twofold manner with RPMI-1640 medium with L-glutamine, supplemented with 2% glucose (w/v) and buffered to pH 7.0 with 3 morpholinopropane-1-sulfonic acid (all components were purchased from Sigma-Aldrich, USA). […] Positive controls consisted of test microbe solely, while negative controls consisted of medium and DMSO. Internal quality control was included too. Visual inspection was used for MIC endpoints evaluation. The experiments were conducted in duplicates. For the results to be valid, the difference in MIC determined from two parallel measurements must not be greater than one step on the dilution scale. PABA and triazole antimycotic drug fluconazole were involved as the reference compounds.

[1] = tested on: Lichtheimia corymbifera 272; experiment: Antifungal microdilution broth method, L. corymbifera; assay type: cell-based
Procedure: as §1

Candida glabrata 20/I = experiment: Antifungal microdilution broth method, C. glabrata; assay type: cell-based; details: Nakaseomyces glabratus
Procedure: as §1

[2] = tested on: Candida albicans ATCC 44859; experiment: Antifungal microdilution broth method, C. albicans; assay type: cell-based
Procedure: as §1

Candida tropicalis 156 = experiment: Antifungal microdilution broth method, C. tropicalis; assay type: cell-based
Procedure: as §1

Candida krusei E28 = experiment: Antifungal microdilution broth method, C. krusei; assay type: cell-based; details: Pichia kudriavzevii
Procedure: as §1

[3] = tested on: Aspergillus fumigatus 231; experiment: Antifungal microdilution broth method, A. fumigatus; assay type: cell-based
Procedure: as §1

[4] = tested on: Trichophyton interdigitale 445; experiment: Antifungal microdilution broth method, T. interdigitale; assay type: cell-based
Procedure: as §1

[5] = tested on: Mycobacterium kansasii 235/80; experiment: Antimycobacterial micromethod in Šula's medium, M. kansasii 235/80; assay type: cell-based
[6] = tested on: M. kansasii 6509/96 (clinical isolate); experiment: Antimycobacterial micromethod in Šula's medium, M. kansasii 6509/96; assay type: cell-based; details: Mycobacterium kansasii
[7] = tested on: Mycobacterium tuberculosis H37Rv (331/88); experiment: Antimycobacterial micromethod in Šula's medium, M. tuberculosis; assay type: cell-based
[8] = tested on: Mycobacterium avium 330/88; experiment: Antimycobacterial micromethod in Šula's medium, M. avium; assay type: cell-based
[9] = tested on: Pseudomonas aeruginosa ATCC 27853, CCM 3955; experiment: Antibacterial microdilution broth method, P. aeruginosa; assay type: cell-based; details: P. aeruginosa
[10] = tested on: Escherichia coli ATCC 25922, CCM 3954; experiment: Antibacterial microdilution broth method, E. coli; assay type: cell-based
[11] = tested on: Klebsiella pneumoniae D 11750/08; experiment: Antibacterial microdilution broth method, K. pneumoniae; details: K. pneumoniae D 11750/08
[12] = tested on: Staphylococcus epidermidis H 6966/08; experiment: Antibacterial microdilution broth method, S. epidermidis; assay type: cell-based; details: S. epidermidis
[13] = tested on: methicillin-resistant Staphylococcus aureus ATCC 43300, CCM 4750 (MRSA); experiment: Antibacterial microdilution broth method, MRSA; assay type: cell-based
[14] = tested on: Enterococcus faecalis ATCC 29212, CCM 4224; experiment: Antibacterial microdilution broth method, E. faecalis; assay type: cell-based
[15] = tested on: ESBL-positive Klebsiella pneumoniae J 14368/08; details: ESBL-positive K. pneumoniae
[16] = 24 h incubation, read-out: MIC PA 24 h
[17] = 48 h incubation, read-out: MIC PA 48 h
[18] = 24 h incubation, read-out: MIC EC 24 h
[19] = 48 h incubation, read-out: MIC EC 48 h

Compound: N.N.[Cl][Pt][Cl] [Cisplatin, cisplatin, reference compound]
- IC50 (HepG2 cells): 21.3 µM

Compound: OC(Cn1cncn1)(Cn1cncn1)c1ccc(F)cc1F [FLU, fluconazole, reference compound]
- MIC50 (Trichosporon asahii 1188; 24 h, fluconazole values mean MIC50, read-out: MIC50 TA 24 h): 250 µM (≈ 76.6 µg/mL)
- MIC50 (Trichosporon asahii 1188; 48 h, fluconazole values mean MIC50, read-out: MIC50 TA 48 h): 500 µM (≈ 153 µg/mL)
- MIC50 ([1]; 24 h, fluconazole values mean MIC50, read-out: MIC50 LC 24 h): > 500 µM
- MIC50 ([1]; 48 h, fluconazole values mean MIC50, read-out: MIC50 LC 48 h): > 500 µM
- MIC50 (Candida glabrata 20/I; 24 h, fluconazole values mean MIC50, read-out: MIC50 CG 24 h): 31.2 µM (≈ 9.57 µg/mL)
- MIC50 (Candida glabrata 20/I; 48 h, fluconazole values mean MIC50, read-out: MIC50 CG 48 h): 500 µM (≈ 153 µg/mL)
- MIC50 ([2]; ATCC44859, 24 h, fluconazole values mean MIC50, read-out: MIC50 CA 24 h): 0.24 µM (≈ 0.0735 µg/mL)
- MIC50 ([2]; ATCC44859, 48 h, fluconazole values mean MIC50, read-out: MIC50 CA 48 h): 0.24 µM (≈ 0.0735 µg/mL)
- MIC50 (Candida tropicalis 156; 24 h, fluconazole values mean MIC50, read-out: MIC50 CT 24 h): > 500 µM
- MIC50 (Candida tropicalis 156; 48 h, fluconazole values mean MIC50, read-out: MIC50 CT 48 h): > 500 µM
- MIC50 (Candida krusei E28; 24 h, fluconazole values mean MIC50, read-out: MIC50 CK 24 h): 125 µM (≈ 38.3 µg/mL)
- MIC50 (Candida krusei E28; 48 h, fluconazole values mean MIC50, read-out: MIC50 CK 48 h): 250 µM (≈ 76.6 µg/mL)
- MIC50 ([3]; 24 h, fluconazole values mean MIC50, read-out: MIC50 AF 24 h): > 500 µM
- MIC50 ([3]; 48 h, fluconazole values mean MIC50, read-out: MIC50 AF 48 h): > 500 µM
- MIC50 ([4]; 72 h, fluconazole values mean MIC50, read-out: MIC50 TI 72 h): 7.81 µM (≈ 2.39 µg/mL)
- MIC50 ([4]; 120 h, fluconazole values mean MIC50, read-out: MIC50 TI 120 h): 125 µM (≈ 38.3 µg/mL)

Compound: NNC(=O)c1ccncc1 [INH, isoniazid, reference compound]
- MIC ([5]; 235/80, 168 h, 7 days incubation at 37 °C, read-out: MIC M. kansasii 235/80 7 d): > 250 µM
- MIC ([5]; 235/80, 336 h, 14 days incubation at 37 °C, read-out: MIC M. kansasii 235/80 14 d): > 250 µM
- MIC ([5]; 235/80, 504 h, 21 days incubation at 37 °C, read-out: MIC M. kansasii 235/80 21 d): > 250 µM
- MIC ([6]; 168 h, 7 days incubation at 37 °C, read-out: MIC M. kansasii 6509/96 7 d): 8 µM (≈ 1.1 µg/mL)
- MIC ([6]; 336 h, 14 days incubation at 37 °C, read-out: MIC M. kansasii 6509/96 14 d): 8 µM (≈ 1.1 µg/mL)
- MIC ([6]; 504 h, 21 days incubation at 37 °C, read-out: MIC M. kansasii 6509/96 21 d): 8 µM (≈ 1.1 µg/mL)
- MIC ([7]; 336 h, 14 days incubation at 37 °C, read-out: MIC Mtb. 331/88 14 d): 0.5 µM (≈ 0.0686 µg/mL)
- MIC ([7]; 504 h, 21 days incubation at 37 °C, read-out: MIC Mtb. 331/88 21 d): 1 µM (≈ 0.137 µg/mL)
- MIC ([8]; 330/88, 336 h, 14 days incubation at 37 °C, read-out: MIC M. avium 330/88 14 d): > 250 µM
- MIC ([8]; 330/88, 504 h, 21 days incubation at 37 °C, read-out: MIC M. avium 330/88 21 d): > 250 µM

Compound: NC[C@@H]1O[C@H](O[C@H]2[C@@H](O)[C@H](O[C@@H]3[C@@H](O)[C@H](N)C[C@H](N)[C@H]3O[C@H]3O[C@H](CN)[C@@H](O)[C@H](O)[C@H]3N)O[C@@H]2CO)[C@H](N)[C@@H](O)[C@@H]1O [NEO, neomycin, reference compound]
- MIC [9, 16]: 7.81 µM (≈ 4.8 µg/mL)
- MIC [9, 17]: 15.62 µM (≈ 9.6 µg/mL)
- MIC [10, 18]: 3.9 µM (≈ 2.4 µg/mL)
- MIC [10, 19]: 3.9 µM (≈ 2.4 µg/mL)

Compound: bacitracin [reference compound]
- MIC KP 24 h ([11]; 24 h incubation): >500 µM
- MIC KP 48 h ([11]; 48 h incubation): >500 µM
- MIC ([12]; 24 h incubation, read-out: MIC SE 24 h): 15.62 µM
- MIC ([12]; 48 h incubation, read-out: MIC SE 48 h): 31.25 µM
- MIC ([13]; 24 h incubation, read-out: MIC MRSA 24 h): 15.62 µM
- MIC ([13]; 48 h incubation, read-out: MIC MRSA 48 h): 15.62 µM
- MIC [9, 16]: >500 µM
- MIC [9, 17]: >500 µM
- MIC ([14]; 24 h incubation, read-out: MIC EF 24 h): 15.62 µM
- MIC ([14]; 48 h incubation, read-out: MIC EF 48 h): 62.5 µM
- MIC [10, 18]: >500 µM
- MIC [10, 19]: >500 µM
- MIC KP-E 24 h ([15]; 24 h incubation): >500 µM
- MIC KP-E 48 h ([15]; 48 h incubation): >500 µM
